Assay results taken from ChEMBL document CHEMBL6121019, “Design, synthesis and biological evaluation of bisnoralcohol derivatives as novel IRF4 inhibitors for the treatment of multiple myeloma” (Eur J Med Chem, 2025).
Activity calls are given as the source filed them. The rule behind the calls is not given here.

Legend:
NCI-H929 [1] = assay: Antitumor activity against human NCI-H929 cells xenografted in Balb/C nude mouse model assessed as inhibition of Akt phosphorylation level at 25 mg/kg by Western blot analysis; assay type: functional, organism-based
NCI-H929 [2] = assay: Induction of cell cycle arrest in human NCI-H929 cells assessed as accumulation of cells at G1 phase measured after 24 hrs by flow cytometry analysis; assay type: functional, cell-based; settings: dose 0.125-0.5 µM
NCI-H929 [3] = assay: Downregulation of CANX expression in human NCI-H929 cells measured after 24 hrs by qRT-PCR analysis; assay type: functional, cell-based; settings: dose 0.125-1 µM
RPMI-8226 [4] = assay: Antiproliferative activity against human RPMI-8226 cells overexpressing IRF4 at 0.125 to 1 uM measured after 72 hrs by MTS assay; assay type: functional, cell-based; settings: dose 0.125-1 µM
NCI-H929 [5] = assay: Inhibition of AKT phosphorylation level in human NCI-H929 cells at 0.1 to 1 uM by Western blot analysis; assay type: functional, cell-based; settings: dose 0.1-1 µM
NCI-H929 [6] = assay: Downregulation of CCNC expression in human NCI-H929 cells measured after 24 hrs by qRT-PCR analysis; assay type: functional, cell-based; settings: dose 0.125-1 µM
[7] = Potency index, ratio of IC50 for lenalidomide to test compound IC50 for antiproliferative activity against human RPMI-8226 cells assessed as inhibition of cell growth measured after 72 hrs by MTS assay; assay type: functional
NCI-H929 [8] = assay: Antitumor activity against human NCI-H929 cells xenografted in Balb/C nude mouse model assessed as increase in gammaH2AX expression at 25 mg/kg by Western blot analysis; assay type: functional, organism-based
NCI-H929 [9] = assay: Induction of cell cycle arrest in human NCI-H929 cells assessed as accumulation of cells at G2 phase at 0.5 uM measured after 24 hrs by flow cytometry analysis (reference value: 13.37%); assay type: functional
NCI-H929 [10] = assay: Downregulation of Blimp1 expression in human NCI-H929 cells measured after 24 hrs by qRT-PCR analysis; assay type: functional, cell-based; settings: dose 0.125-1 µM
RPMI-8226 [11] = assay: Antiproliferative activity against human RPMI-8226 cells assessed as inhibition of cell viability measured after 72 hrs by MTS assay; assay type: functional, cell-based; settings: RPMI-8226, 72 h
NCI-H929 [12] = assay: Antiproliferative activity against human NCI-H929 cells assessed as inhibition of cell viability measured after 72 hrs by MTS assay; assay type: functional, cell-based; settings: NCI-H929, 72 h
[13] = biological target: T1, Interferon regulatory factor 3 (Homo sapiens) (UniProt Q14653); assay: Induction of thermal stabilization of IRF3 in human NCI-H929 cells at 42 to 42.3 degree C by […] method; assay type: cell-based
T1 sequence (whole entry): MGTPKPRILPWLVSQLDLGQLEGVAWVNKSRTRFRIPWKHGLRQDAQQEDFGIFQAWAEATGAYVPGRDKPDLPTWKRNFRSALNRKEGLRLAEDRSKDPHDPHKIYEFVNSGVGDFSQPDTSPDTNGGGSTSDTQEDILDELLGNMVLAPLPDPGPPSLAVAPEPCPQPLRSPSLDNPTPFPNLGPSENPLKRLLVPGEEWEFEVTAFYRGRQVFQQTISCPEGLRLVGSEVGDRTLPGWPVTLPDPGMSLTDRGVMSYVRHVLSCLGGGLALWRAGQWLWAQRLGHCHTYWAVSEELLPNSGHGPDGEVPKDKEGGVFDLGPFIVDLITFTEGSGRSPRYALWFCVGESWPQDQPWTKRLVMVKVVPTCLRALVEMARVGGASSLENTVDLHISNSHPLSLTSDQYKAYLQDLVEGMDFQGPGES

MM.1R [14] = assay: Inhibition of AKT phosphorylation level in human MM1.R cells at 0.1 to 1 uM by Western blot analysis; assay type: functional, cell-based; settings: dose 0.1-1 µM
[15] = AUC (0 to t) in ICR mouse plasma at 10 mg/kg, po; assay type: ADME, organism-based
MM.1R [16] = assay: Induction of cell cycle arrest in human MM1.R cells assessed as inhibition of cyclin E1 protein expression at 0.1 to 1 uM; assay type: functional, cell-based; settings: dose 0.1-1 µM
[17] = AUC (0 to infinity) in ICR mouse plasma at 10 mg/kg, po; assay type: ADME, organism-based
[18] = Oral bioavailability in ICR mouse plasma at 10 mg/kg; assay type: ADME, organism-based
NCI-H929 [19] = assay: Antiproliferative activity against human NCI-H929 cells with siRNA mediated IRF4#2 knockdown at 0.125 to 1 uM measured upto 5 days by MTS assay; assay type: functional, cell-based; settings: dose 0.125-1 µM, time <= 5.0 day
MM.1R [20] = assay: Induction of DNA damage in human MM1.R cells assessed as increase in gammaH2AX expression at 0.1 to 1 uM by Western blot analysis; assay type: functional, cell-based; settings: dose 0.1-1 µM
NCI-H929 [21] = assay: Antiproliferative activity against human NCI-H929 cells with siRNA mediated IRF4#1 knockdown at 0.125 to 1 uM measured upto 5 days by MTS assay; assay type: functional, cell-based; settings: dose 0.125-1 µM, time <= 5.0 day
NCI-H929 [22] = assay: Induction of cell cycle arrest in human NCI-H929 cells assessed as inhibition of cyclin E1 protein expression at 0.1 to 1 uM; assay type: functional, cell-based; settings: dose 0.1-1 µM
NCI-H929 [23] = assay: Induction of cell cycle arrest in human NCI-H929 cells assessed as accumulation of cells at G2 phase at 0.25 uM measured after 24 hrs by flow cytometry analysis (reference value: 13.37%); assay type: functional
NCI-H929 [24] = assay: Induction of cell cycle arrest in human NCI-H929 cells assessed as accumulation of cells at S phase at 0.125 uM measured after 24 hrs by flow cytometry analysis (reference value: 32.14%); assay type: functional
[25] = Selectivity ratio IC50 for human RPMI-8226 cells to IC50 for human NCI-H929 cells; assay type: toxicity
RPMI-8226 [26] = assay: Effect on IRF4 expression in human RPMI-8226 cells by Western blot analysis; assay type: functional, cell-based
MM.1R [27] = assay: Effect on IRF4 expression in human MM1.R cells by Western blot analysis; assay type: functional, cell-based
MM.1R [28] = assay: Antiproliferative activity against human MM1.R cells assessed as inhibition of 3D clone forming ability measured after 2 to 3 weeks; assay type: functional, cell-based; settings: dose 0.125-1 µM, time 2-3 weeks
NCI-H929 [29] = assay: Antitumor activity against human NCI-H929 cells xenografted in Balb/C nude mouse model assessed as inhibition of […] expression at 25 mg/kg by Western blot analysis; assay type: functional, organism-based
MM.1R [30] = assay: Downregulation of CCNC expression in human MM1.R cells measured after 24 hrs by qRT-PCR analysis; assay type: functional, cell-based; settings: dose 0.125-1 µM
NCI-H929 [31] = assay: Antitumor activity against human NCI-H929 cells xenografted in Balb/C nude mouse model assessed as inhibition of tumor volume measured after 34 days; assay type: functional; settings: dose 12.5-25 mg/kg, time 34.0 day
MM.1R [32] = assay: Induction of cell cycle arrest in human MM1.R cells assessed as inhibition of cyclin D1 protein expression at 0.1 to 1 uM; assay type: functional, cell-based; settings: dose 0.1-1 µM
[33] = Potency index, ratio of IC50 for lenalidomide to test compound IC50 for antiproliferative activity against human NCI-H929 cells assessed as inhibition of cell growth measured after 72 hrs by MTS assay; assay type: functional
[34] = Cmax in ICR mouse plasma at 1.0 mg/kg, iv; assay type: ADME, organism-based
NCI-H929 [35] = assay: Inhibition of ERK phosphorylation level in human NCI-H929 cells at 0.1 to 1 uM by Western blot analysis; assay type: functional, cell-based; settings: dose 0.1-1 µM
[36] = Potency index, ratio of IC50 for lenalidomide to test compound IC50 for antiproliferative activity against human MM1.R cells assessed as inhibition of cell growth measured after 72 hrs by MTS assay; assay type: functional

COc1ccc(NC(=O)[C@@H](C)[C@H]2CC[C@H]3[C@@H]4C(=O)C=C5C(C)(C)C(=O)C(C#N)=C[C@]5(C)[C@H]4CC[C@]23C)cc1
Activity (NCI-H929 [1]): Active | Activity (NCI-H929 [2]): Dose-dependent-effect | Activity (NCI-H929 [3]): Active | Activity (RPMI-8226 [4]): Active | inhibition (NCI-H929 [5]): Active | Activity (NCI-H929 [6]): Active | Ratio IC50 [7]: 30 | Activity (NCI-H929 [8]): Active | Activity (NCI-H929 [9]): 10.56% | Activity (NCI-H929 [10]): Active | IC50 (RPMI-8226 [11]): 1190 nM | IC50 (NCI-H929 [12]): 80 nM | Activity [13]: inactive | inhibition (MM.1R [14]): Active | AUC(0-t) [15]: 285 ng·h/mL | Activity (MM.1R [16]): Active | AUC(0-inf) [17]: 463 ng·h/mL | bioavailability [18]: 53.9% | Activity (NCI-H929 [19]): Active | Activity (MM.1R [20]): Active | Activity (NCI-H929 [21]): Active | Activity (NCI-H929 [22]): Active | Activity (NCI-H929 [23]): 14.14% | Activity (NCI-H929 [24]): 30.67% | Ratio IC50 [25]: 14.9 | Activity (RPMI-8226 [26]): Active; Compound Showed Low Expression | Activity (MM.1R [27]): Active | Activity (MM.1R [28]): Dose-dependent-effect | Activity (NCI-H929 [29]): Active | Activity (MM.1R [30]): Active | Activity (NCI-H929 [31]): Active; More Effective Than Lenalidomide | Activity (MM.1R [32]): Active | Ratio IC50 [33]: 30 | Cmax [34]: 174 ng/mL | inhibition (NCI-H929 [35]): Active | Ratio IC50 [36]: 30
